Read-outs that look alike come from different tables or passages of the source.
Biological target: T1, SIRT1 (Homo sapiens, UniProt Q96EB6)
T1 sequence (Q96EB6 1-747): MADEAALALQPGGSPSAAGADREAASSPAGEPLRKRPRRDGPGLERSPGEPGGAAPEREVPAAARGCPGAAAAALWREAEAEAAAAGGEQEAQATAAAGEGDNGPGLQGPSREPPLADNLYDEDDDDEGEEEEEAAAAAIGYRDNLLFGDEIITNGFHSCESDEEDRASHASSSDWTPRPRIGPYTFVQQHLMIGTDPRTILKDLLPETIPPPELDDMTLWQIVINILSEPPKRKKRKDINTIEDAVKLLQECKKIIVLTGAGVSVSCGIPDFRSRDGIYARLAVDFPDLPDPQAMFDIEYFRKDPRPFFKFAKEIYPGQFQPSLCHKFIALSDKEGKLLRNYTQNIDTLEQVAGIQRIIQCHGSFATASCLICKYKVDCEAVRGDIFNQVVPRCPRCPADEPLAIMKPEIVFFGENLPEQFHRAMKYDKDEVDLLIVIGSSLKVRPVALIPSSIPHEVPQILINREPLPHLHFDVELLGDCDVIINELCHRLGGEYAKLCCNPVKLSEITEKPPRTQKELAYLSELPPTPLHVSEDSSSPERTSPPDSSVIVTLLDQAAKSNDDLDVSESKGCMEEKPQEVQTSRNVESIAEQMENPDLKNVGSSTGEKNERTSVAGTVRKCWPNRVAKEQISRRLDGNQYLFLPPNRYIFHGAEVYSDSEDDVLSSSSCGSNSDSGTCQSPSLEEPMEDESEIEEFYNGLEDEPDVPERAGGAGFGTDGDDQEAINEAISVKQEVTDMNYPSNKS
Assay: SIRT1 mass spectrometry (MS) based deacetylation assay; as to FOLD ACT. MS: test concentration or dose not given here
Type: biochemical

[1] = SIRT1 activation, mass spectrometry assay, read-out: ED50 MS ASSAY
[2] = fold activation of SIRT1 as determined by MS
[3] = Sirt1 activators, fold activation as determined by MS
[4] = Sirt1 activators, mass spectrometry assay, read-out: ED50 MS ASSAY
[5] = fold activation of SIRT1, mass spectrometry assay
[6] = SIRT1 fold activation as determined by MS

CN(C)c1cccc(C(=O)Nc2cc(-c3nc4ncccc4o3)ccn2)c1 [Compound 76]
EC50 [1]: 5 to 50 µM
FOLD ACT. MS [2]: B (B (Fold Activation <250%))

CN(C)c1cccc(C(=O)Nc2cccc(-c3nc4cccnc4o3)c2)c1 [Compound 111]
EC50 [1]: 5 to 50 µM
FOLD ACT. MS [2]: B (B (Fold Activation <250%))

COc1cc(C(=O)Nc2ccccc2-c2nc3ncccc3o2)ccc1CN1CCCC1 [Compound 629]
FOLD ACT. MS [3]: A (A (Fold activation >250%))
EC50 [4]: 5 to 50 µM

COc1ccc(C(=O)Nc2cccc(-c3nc4ncccc4s3)c2)c(OC)c1OC [Compound 198]
EC50 [1]: 5 to 50 µM
FOLD ACT. MS [2]: B (B (Fold Activation <250%))

S=C(Nc1ccc(-n2cccn2)cc1)Nc1cccc(-c2nc3ccncc3s2)c1 [Compound 481]
EC50 [4]: 5 to 50 µM

COc1ccc(C(=O)Nc2ccc(C)cc2-c2nc3ccccc3[nH]2)cc1OC [Compound 507]
FOLD ACT. MS [3]: A (A (Fold activation >250%))
EC50 [4]: < 5 µM

COc1cc(C(=O)Nc2ccccc2-c2nc3cccnc3[nH]2)ccc1CN1CCN(C)CC1 [Compound 539]
FOLD ACT. MS [3]: A (A (Fold activation >250%))
EC50 [4]: < 5 µM

COc1cc(C(=O)Nc2cc(C(=O)O)cc(-c3nc4ccncc4s3)c2)cc(OC)c1OC [Compound 134, 3-(thiazolo[5,4-c]pyridin-2-yl)-5-(3,4,5-trimethoxybenzamido)benzoic acid]
EC50 [1]: < 5 µM
FOLD ACT. MS [2]: B (B (Fold Activation <250%))

COc1ccc(C(=O)Nc2cccc(-c3nc4cnccc4o3)c2)cc1OC [Compound 344]
EC50 [1]: < 5 µM
FOLD ACT. MS [5]: B (B (Fold Activation <250%))

O=C(Nc1ccccc1-c1cn2c(CN3CC(F)(F)C3)csc2n1)c1cnc2ccccc2n1 [Compound 717]
EC50 [1]: 5 to 50 µM
FOLD ACT. MS [6]: B (B (Fold Activation <250%))

COc1ccc(C(=O)Nc2cccc(-c3cccnc3)c2)c(OC)c1 [Compound 331]
EC50 [1]: 5 to 50 µM
FOLD ACT. MS [5]: B (B (Fold Activation <250%))

COc1cc(C(=O)Nc2ccccc2-c2cnc3ccccc3c2)cc(OC)c1OC [Compound 415]
EC50 [1]: 51 to 100 µM
FOLD ACT. MS [5]: B (B (Fold Activation <250%))

CN(C)c1cccc(C(=O)Nc2ccc(-c3nc4cnccc4o3)s2)c1 [Compound 427]
EC50 [1]: < 5 µM
FOLD ACT. MS [5]: B (B (Fold Activation <250%))

CN(C)CCNC(=O)c1cc(NC(=O)c2cccc(N(C)C)c2)cc(-c2nc3ncccc3o2)c1 [Compound 154]
EC50 [1]: 101 to 150 µM
FOLD ACT. MS [2]: A (A (Fold activation >250%))

COc1ccc(C(=O)Nc2ccccc2-c2cn3ccccc3n2)cc1OC [Compound 266]
EC50 [1]: < 5 µM
FOLD ACT. MS [5]: A (A (Fold activation >250%))

COc1cc(C(=O)Nc2ccccc2-c2nc3ccncc3o2)cc(OC)c1OC [Compound 457]
EC50 [1]: 5 to 50 µM
FOLD ACT. MS [5]: B (B (Fold Activation <250%))

COc1ccc(C(=O)Nc2ccccc2-c2cn3ccccc3n2)c(OC)c1 [Compound 265]
EC50 [1]: 5 to 50 µM
FOLD ACT. MS [5]: B (B (Fold Activation <250%))

CN(C)c1cccc(C(=O)Nc2ccccc2-c2nc3cc(CN4CCNCC4)cnc3s2)c1 [Compound 593]
FOLD ACT. MS [3]: A (A (Fold activation >250%))
EC50 [4]: < 5 µM

COc1cc(C(=O)Nc2ccccc2-c2cn3cc(CN(C)C)sc3n2)cc(OC)c1OC [Compound 179]
EC50 [1]: < 5 µM
FOLD ACT. MS [2]: A (A (Fold activation >250%))

COc1ccc(OC(=O)Nc2ccccc2-c2nc3ncccc3o2)cc1OC [Compound 670]
EC50: 5 to 50 µM
FOLD ACT. MS [3]: B (B (Fold Activation <250%))

O=C(Nc1ccccc1-c1cn2c(CNCC(O)CO)csc2n1)c1cnc2ccccc2n1 (stereo not drawn) [Compound 676]
FOLD ACT. MS [3]: A (A (Fold activation >250%))
EC50 [4]: < 5 µM

Cc1csc2nc(-c3ccccc3NC(=O)c3cccc(N(C)C)c3)cn12 [Compound 740]
EC50 [1]: < 5 µM
FOLD ACT. MS [6]: B (B (Fold Activation <250%))

COc1cc(OC)cc(C(=O)Nc2ccccc2-c2nc3cnccc3o2)c1 [Compound 404]
EC50 [1]: < 5 µM
FOLD ACT. MS [5]: B (B (Fold Activation <250%))

O=C(Nc1ccccc1-c1nc2cc(CN3CCNCC3)cnc2s1)c1cc(-c2ccccc2)no1 [Compound 732]
EC50 [1]: < 5 µM
FOLD ACT. MS [6]: B (B (Fold Activation <250%))

COc1ccc(C(=O)Nc2ccccc2-c2cn3cccnc3n2)cc1OC [Compound 438]
EC50 [1]: < 5 µM
FOLD ACT. MS [5]: A (A (Fold activation >250%))

CN(C)c1cccc(C(=O)Nc2cccc(-c3nc4cnccc4o3)c2)c1 [Compound 311]
EC50 [1]: 5 to 50 µM
FOLD ACT. MS [5]: B (B (Fold Activation <250%))

COc1cc(C(=O)Nc2ccccc2-c2nc3ccncc3s2)ccc1CN1CCCC1 [Compound 436]
EC50 [1]: 5 to 50 µM
FOLD ACT. MS [5]: A (A (Fold activation >250%))

O=C(Nc1ccccc1-c1nc2ccc(CN3CCNCC3)nc2s1)c1ccc2ccccc2n1 [Compound 729]
EC50 [1]: < 5 µM
FOLD ACT. MS [6]: A (A (Fold activation >250%))

COC(=O)c1cc(NC(=O)c2ccc(OC)c(OC)c2)cc(-c2nc3ncccc3o2)c1 [Compound 136, Methyl 3-(3,4-dimethoxybenzamido)-5-(oxazolo[4,5-b]pyridin-2-yl)benzoate]
EC50 [1]: > 150 µM

COc1ccc(CNC(=S)Nc2cccc(-c3nc4ccncc4s3)c2)cc1 [Compound 498]
EC50 [4]: 5 to 50 µM

COc1cc(C)ccc1C(=O)Nc1ccc(-c2cc3cccnc3o2)cc1 [Compound 187]
EC50 [1]: 5 to 50 µM
FOLD ACT. MS [2]: B (B (Fold Activation <250%))

NC1CCN(Cc2csc3nc(-c4ccccc4NC(=O)c4cnc5ccccc5n4)cn23)CC1 [Compound 716]
EC50 [1]: < 5 µM
FOLD ACT. MS [6]: A (A (Fold activation >250%))

COc1ccc(C(=O)Nc2cccc(-c3nc4ncccc4s3)c2)cc1OC [Compound 201]
EC50 [1]: 5 to 50 µM
FOLD ACT. MS [2]: B (B (Fold Activation <250%))

O=C(Nc1cccc(-c2nc3ccncc3s2)c1)c1ccco1 [Compound 221]
EC50 [1]: 5 to 50 µM
FOLD ACT. MS [5]: B (B (Fold Activation <250%))

CN(C)c1ccc(C(=O)Nc2cccc(-c3nc4cnccc4o3)c2)cc1 [Compound 299]
EC50 [1]: 5 to 50 µM
FOLD ACT. MS [5]: B (B (Fold Activation <250%))

CSc1ccc(C(=O)Nc2ccccc2-c2cn3c(CN4CCNCC4)csc3n2)cc1 [Compound 444]
EC50 [1]: 5 to 50 µM
FOLD ACT. MS [5]: A (A (Fold activation >250%))

O=C(Nc1cccc(-c2nc3ccncc3s2)c1)c1ccc(Oc2ccccc2)nc1 [Compound 306]
EC50 [1]: 5 to 50 µM
FOLD ACT. MS [5]: B (B (Fold Activation <250%))

COc1cc(C(=O)Nc2cccc(-c3nc4ccccc4[nH]3)n2)cc(OC)c1OC [Compound 259]
EC50 [1]: < 5 µM
FOLD ACT. MS [5]: A (A (Fold activation >250%))

COc1ccc(C(=O)Nc2ncccc2-c2nc3ccccc3[nH]2)cc1OC [Compound 276]
EC50 [1]: < 5 µM
FOLD ACT. MS [5]: B (B (Fold Activation <250%))

O=C(Nc1ccccc1-c1cn2c(CN3CCC(F)CC3)csc2n1)c1cnc2ccccc2n1 [Compound 714]
EC50 [1]: 5 to 50 µM
FOLD ACT. MS [6]: B (B (Fold Activation <250%))

COc1cccc(OC)c1C(=O)Nc1cccc(-c2nc3ccccc3[nH]2)c1 [Compound 126]
EC50 [1]: 5 to 50 µM
FOLD ACT. MS [2]: B (B (Fold Activation <250%))

COc1ccc(C(=O)Nc2cc(CN3CCNCC3)cc(-c3nc4ncccc4o3)c2)cc1OC [Compound 159]
EC50 [1]: 5 to 50 µM
FOLD ACT. MS [2]: B (B (Fold Activation <250%))

Reference: US8044198B2, “Sirtuin modulating compounds” (Sirtris Pharmaceuticals, Inc., priority 2005, dated 2011)
